Assay results taken from patent publication US8399466B2, “Composition for regenerative treatment of cartilage disease” (Mitsubishi Tanabe Pharma Corporation, priority 2001, dated 2013).

Test system: cAMP hydrolytic PDE expressed in human articular cartilage (fraction Nos. 28-30)
Test: Inhibition of cAMP hydrolyzing activity of fraction Nos. 28-30 of human articular cartilage extract
Assay type: biochemical
Protocol: From the human knee articular cartilage was isolated on surgery of osteoarthrosis patients. Cartilage portion was scrapped with a surgery knife, washed with ice-cold phosphate buffer and stored at −80° C. The cartilage tissues were milled at −80° C. and then, scattered into pieces with homogenizer (Kinematica A.G., Polytron) in ice-cold homogenization buffer (20 mM Tris-HCl, pH 8.0, 1 mM ethylene glycol bis(β-aminoethylether)-N,N,N′,N′-tetraacetic acid, 1 mM dithiothreitol, 10 μg/ml leupeptin, 5 mM benzamidine, 0.2 mM phenylmethylsulfonyl fluoride, 1 mM sodium azide and 5 mM mercaptoethanol). The resultant homogenate was centrifuged (100,000×g; 30 minutes) to separate supernatant.
The above supernatant was loaded on a Mono Q Sepharose High Performance column (Amersham Pharmacia Biotech) equilibrated with elution buffer (20 mM Tris-HCl, pH 8.0, 1 mM ethylene glycol bis(β-aminoethylether)-N,N,N′,N′-tetraacetic acid, 1 mM dithiothreitol, 2 μg/ml leupeptin, 5 mM benzamidine). After washing the column with 20 ml of elution buffer, proteins were eluted into 1 ml fractions by aqueous sodium chloride solution (concentration gradient: 0 to 1000 mM, 70 ml) under ice-cooling. Each fraction was subjected to the determination of hydrolytic activity (PDE activity) toward cAMP and cGMP as a substrate.
The determination of PDE activity was performed by a radio-labeled nucleic acid assay. That is, the reaction was initiated by adding from 10 to 50 μl of elution fraction to 500 μl of assay buffer (50 mM Tris-HCl, pH 8.0, 5 mM magnesium chloride, 4 mM 2-mercaptoethanol) containing 1 μM of unlabeled cAMP and 22 nM of [^3H]-cAMP (Amersham Pharmacia Biotech).
After incubation at 37° C. for 30 minutes, the reaction was quenched by boiling for 1.5 minutes. Then, 100 μl of 1 mg/ml Crtalus atrox snake venom was added and incubated at 37° C. for 30 minutes. After addition of 500 μl of methanol, the reaction solution was subjected to Dowex column (1×8-400). To each eluate was added a liquid scintillation cocktail and the radio activity was measured.
The inhibitory activity of PDE4 inhibitor on fraction Nos. 28-30 containing potent cAMP hydrolyzing activity was measured according to the above-mentioned radio-labeled nucleic acid assay. The test compounds are Compound (1), Compound (2), Compound (11), Compound (44) and Compound (27).

## CCOc1cc2cc(CO)c(CO)c(-c3ccnc(-n4nc(-c5cccnc5)c5ccccc5c4=O)c3)c2cc1OCC [Compound (2)]
Fraction Nos. 28-30, FIG. 4
  inhibition of the hydrolytic activity of the fraction: inhibits the hydrolytic activity of the fraction strongly
Method of Journal of Medicinal Chemistry, vol. 42, 1088-1099 (1999), values only in FIG. 4
  IC50 for fraction(s): consistent with the IC50 of PDE4 inhibition activity described in the same literature
